Data on 6 compounds can be found in patent publication EP4219453A1 (Sichuan Kelun-Biotech Biopharmaceutical Co., Ltd., priority 2020, dated 2022).

Each structure is given as a SMILES string. Like-named read-outs stand apart in the source and are kept apart here.

One data set addresses T1, TGFβR1 (Homo sapiens, UniProt P36897).
T1 sequence (P36897 34-503): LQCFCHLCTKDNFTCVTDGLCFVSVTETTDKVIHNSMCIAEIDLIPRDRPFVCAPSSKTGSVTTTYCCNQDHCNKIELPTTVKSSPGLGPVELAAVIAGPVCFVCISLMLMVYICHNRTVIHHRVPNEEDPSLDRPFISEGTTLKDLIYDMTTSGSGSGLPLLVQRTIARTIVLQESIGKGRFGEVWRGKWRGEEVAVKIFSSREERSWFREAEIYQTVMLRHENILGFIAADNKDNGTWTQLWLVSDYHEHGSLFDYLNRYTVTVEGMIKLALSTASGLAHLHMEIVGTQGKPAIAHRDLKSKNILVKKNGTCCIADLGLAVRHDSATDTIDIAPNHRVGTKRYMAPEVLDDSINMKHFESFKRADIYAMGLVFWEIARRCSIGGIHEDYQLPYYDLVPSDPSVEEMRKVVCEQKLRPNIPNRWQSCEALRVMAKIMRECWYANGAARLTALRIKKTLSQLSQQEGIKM
The data set can be described thus: In vitro enzymatic activity inhibition test (TGFβR1), ADP-Glo Kinase Detection Kit. Type of data set: biochemical. Conditions: calculated from percent inhibition at 1000 nM, 100 nM, 10 nM. Here is the method: Test Example 1: In vitro enzymatic activity inhibition test (TGFβR1).
Experimental method: According to the instructions of ADP-Glo™ Kinase Detection Kit (Promega), the inhibitory effect of the compounds of the present invention on the enzymatic activity of TGFβR1 was determined, and the steps were as follows: TGFβR1 enzyme were pre-incubated with different concentrations of test compounds (1000 nM, 100 nM, 10 nM) at 30°C for 30 min, TGFβR1 peptide and adenosine triphosphate (ATP) were added to initiate the reaction. The incubation was performed at 30°C for 3 h, followed by an addition of ADP-Glo™ reagent and incubated at room temperature for 90 min, kinase detection reagent was then added. Chemiluminescence signal values were detected after incubation at room temperature for another 30 min.
When the percent inhibition rate was between 30% and 80%, the median inhibitory concentration (IC50) or range of the compound was calculated according to the following formula: IC50 = X × (1 - percent inhibition rate (%)) / percent inhibition rate (%), wherein X is the concentration of the compound at which the inhibition rate is between 30% and 80%.

In the next data set the target is T2, CYP1A2 (Homo sapiens, UniProt P05177).
T2 construct: purchased Promega
T2 sequence (P05177 1-516): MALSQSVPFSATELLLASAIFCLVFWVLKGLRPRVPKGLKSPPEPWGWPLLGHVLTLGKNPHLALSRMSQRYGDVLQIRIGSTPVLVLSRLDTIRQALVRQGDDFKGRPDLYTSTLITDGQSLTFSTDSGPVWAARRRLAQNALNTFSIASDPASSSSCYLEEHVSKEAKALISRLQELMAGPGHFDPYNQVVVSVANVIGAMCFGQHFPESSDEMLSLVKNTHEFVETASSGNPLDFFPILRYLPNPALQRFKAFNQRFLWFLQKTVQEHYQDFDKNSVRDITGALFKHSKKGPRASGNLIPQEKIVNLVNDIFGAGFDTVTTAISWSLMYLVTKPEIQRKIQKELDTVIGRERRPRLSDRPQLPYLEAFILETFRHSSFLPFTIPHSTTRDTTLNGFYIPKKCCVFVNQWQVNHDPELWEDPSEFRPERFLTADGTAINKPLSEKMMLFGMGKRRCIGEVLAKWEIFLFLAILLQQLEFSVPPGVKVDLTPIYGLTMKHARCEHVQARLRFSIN
The data set is described as follows: CYP enzyme inhibition test, P450-Glo CYP1A2 Screening System. Type of data set: in vitro ADME. Here is the method: Test Example 5: CYP enzyme (Cytocrome P450) inhibition test […] Test system: • P450-Glo™ CYP1A2 Screening System (Promega); • P450-Glo™ CYP2D6 Screening System (Promega); • P450-Glo™ CYP3A4 Screening System (Promega). • 2. Test instrument: BMG PHERAstar FS Luminescent. • 3. Test method: The test was carried out according to the kit instructions, and the steps were as follows: 3.1. Inhibition of CYP1A2: Test group: […] Negative control group: The experimental method was the same as that of the test group, but the test compound was not added. Blank control group: […] The median inhibitory concentration (IC50) or range of the compound was estimated according to the inhibition rate of CYP enzymes at different concentrations: […]

Another data set concerns the target T3, CYP3A4 (Homo sapiens, UniProt P08684).
T3 construct: purchased Promega
The data set is described as follows: CYP enzyme inhibition test, P450-Glo CYP3A4 Screening System. Conditions: Luciferin-IPA 3 µM. In kind it is in vitro ADME. Here is the method:
(§1) Test Example 5: CYP enzyme (Cytocrome P450) inhibition test
(§2) • 1. Test system: • P450-Glo™ CYP1A2 Screening System (Promega); • P450-Glo™ CYP2D6 Screening System (Promega); • P450-Glo™ CYP3A4 Screening System (Promega). • 2. Test instrument: BMG PHERAstar FS Luminescent. • 3. Test method: The test was carried out according to the kit instructions, and the steps were as follows: 3.1. Inhibition of CYP1A2:
Test group: The test compound of different concentration was added to the microplate, Luciferin-IPA (3 µM), K3PO4 (100 mM) and CYP3A4 (2 nM) were added to each well, and pre-incubated at room temperature for 10 min, followed by an addition of the NADPH regeneration system, and reacted at room temperature for 30 min, an equal volume of detection buffer was added at last, and incubated at room temperature for 20 min, and then chemiluminescence detection was performed.
(§3) Negative control group: The experimental method was the same as that of the test group, but the test compound was not added.
Blank control group: The experimental method was the same as that of the test group, but the test compound was not added, and CYP3A4 Membrance (2 nM) was used instead of CYP3A4.
(§4) The median inhibitory concentration (IC50) or range of the compound was estimated according to the inhibition rate of CYP enzymes at different concentrations: IC50 = X × (1 - percent inhibition rate (%)) / percent inhibition rate (%), wherein X is the test concentration of the compound.

The target in another data set is T4, CYP2D6 (Homo sapiens, UniProt P10635).
T4 construct: purchased Promega
The data set is described as follows: CYP enzyme inhibition test, P450-Glo CYP2D6 Screening System. In kind it is in vitro ADME. Conditions: Luciferin-ME EGE 3 µM. Here is the method: as §1, §2
Test group: The test compound of different concentration was added to the microplate, and Luciferin-ME EGE (3 µM), K3PO4 (100 mM) and CYP2D6 (5 nM) were added to each well, and pre-incubated at room temperature for 10 min, followed by an addition of the NADPH regeneration system, and reacted at 37°C for 30 min, an equal volume of detection buffer was added at last, and incubated at room temperature for 20 min, and then chemiluminescence detection was performed.
as §3
Blank control group: The experimental method was the same as that of the test group, but the test compound was not added, and CYP2D6 Membrance (5 nM) was used instead of CYP2D6.
as §4

Where [1] appears, read: Luciferin-ME 100 µM, read-out: IC50 (µM) CYP1A2.

T3 sequence (P08684 whole entry): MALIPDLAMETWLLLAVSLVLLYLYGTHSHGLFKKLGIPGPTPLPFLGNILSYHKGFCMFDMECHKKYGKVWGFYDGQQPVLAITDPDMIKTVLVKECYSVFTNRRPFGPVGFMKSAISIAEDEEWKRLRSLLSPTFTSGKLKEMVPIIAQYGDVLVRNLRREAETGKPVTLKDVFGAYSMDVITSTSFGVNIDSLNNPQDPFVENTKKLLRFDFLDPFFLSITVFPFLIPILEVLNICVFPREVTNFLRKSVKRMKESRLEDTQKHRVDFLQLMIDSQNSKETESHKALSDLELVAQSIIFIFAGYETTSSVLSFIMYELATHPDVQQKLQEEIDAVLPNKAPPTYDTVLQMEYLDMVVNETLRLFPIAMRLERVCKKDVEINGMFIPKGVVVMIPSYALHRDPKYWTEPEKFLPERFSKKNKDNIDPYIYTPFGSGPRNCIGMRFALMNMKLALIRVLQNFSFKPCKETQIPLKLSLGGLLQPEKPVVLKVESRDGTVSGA
T4 sequence (P10635 whole entry): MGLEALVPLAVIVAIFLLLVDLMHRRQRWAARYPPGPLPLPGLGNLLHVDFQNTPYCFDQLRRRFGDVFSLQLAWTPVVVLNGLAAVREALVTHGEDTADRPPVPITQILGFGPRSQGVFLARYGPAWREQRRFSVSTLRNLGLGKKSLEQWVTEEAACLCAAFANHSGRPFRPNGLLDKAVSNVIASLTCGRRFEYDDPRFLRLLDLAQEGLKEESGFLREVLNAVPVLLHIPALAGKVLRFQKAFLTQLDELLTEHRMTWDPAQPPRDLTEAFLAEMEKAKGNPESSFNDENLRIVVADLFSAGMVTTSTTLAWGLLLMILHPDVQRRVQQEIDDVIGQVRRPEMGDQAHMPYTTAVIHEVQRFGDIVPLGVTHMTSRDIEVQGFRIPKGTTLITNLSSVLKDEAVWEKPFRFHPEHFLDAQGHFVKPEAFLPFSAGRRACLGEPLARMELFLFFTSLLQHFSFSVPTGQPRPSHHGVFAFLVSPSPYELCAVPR

For orientation: IC50 means the point on the concentration scale where inhibition reaches its midpoint. For the compound `CNc1cc(-c2ccn3ncc(C(N)=O)c3c2)n(-c2cccc(C)n2)n1` [Example 8, 5-(3-(methylamino)-1-(6-methylpyridin-2-yl)-1H-pyrazol-5-yl)pyrazolo[1,5-a]pyridine-3-carboxamide], the IC50 is 8.27 ± 0.11 nM on TGFβR1, greater than 10 µM on CYP1A2 (setting [1]), greater than 10 µM against CYP3A4 and greater than 10 µM against CYP2D6.
On to `Cc1cccc(-n2nc3c(c2-c2ccn4nccc4c2)CCC3)n1` [Example 4, 5-[2-(6-methylpyridin-2-yl)-2,4,5,6-tetrahydrocyclopenteno [c]pyrazol-3-yl]pyrazolo[1,5-a]pyridine], for which the IC50 is 12 ± 5.4 nM on TGFβR1, greater than 10 µM against CYP1A2, greater than 10 µM at CYP3A4 and greater than 10 µM at CYP2D6.
With `Cc1cccc(-n2nc(NC(C)c3ccc(F)cc3)cc2-c2ccn3ncc(C(N)=O)c3c2)n1` (stereo not drawn) [Example 10, 5-(3-(1-(4-fluorophenyl)ethylamino)-1-(6-methylpyridin-2-yl)-1H-pyrazol-5-yl)pyridino[1,5-a]pyridine-3-carboxamide], the IC50 on TGFβR1 is 4.82 ± 0.51 nM; against CYP1A2, greater than 10 µM; against CYP3A4 it was greater than 10 µM; at CYP2D6, greater than 10 µM.
With `Cc1cccc(-n2nc(NCc3ccc(F)cc3)cc2-c2ccn3ncc(C(N)=O)c3c2)n1` [Example 11, 5-(3-(4-fluorobenzylamino)-1-(6-methylpyridin-2-yl)-1H-pyrazol-5-yl)pyrazolo[1,5-a]pyridine-3-carboxamide], the half-maximal inhibitory concentration (IC50) at TGFβR1 is 0.5 ± 0.21 nM; at CYP1A2 (setting [1]), greater than 10 µM; at CYP3A4, greater than 10 µM; against CYP2D6 it was greater than 10 µM.
As for `Cc1cccc(-n2nc3c(c2-c2ccn4ncc(C(N)=O)c4c2)CCC3)n1` [Example 6, 5-[2-(6-methylpyridin-2-yl)-2,4,5,6-tetrahydrocyclopenteno[c]pyrazol-3-yl]pyrazolo[1,5-a]pyridine-3-carboxamide], the IC50 on TGFβR1 was 2.36 ± 0.68 nM; at CYP1A2 (Luciferin-ME 100 µM, 30 min, read-out: IC50 (µM) CYP1A2), greater than 10 µM; on CYP3A4 (30 min), greater than 10 µM; at CYP2D6 (30 min), greater than 10 µM.
Consider `Cc1cccc(-n2nccc2-c2ccn3ncc(C(N)=O)c3c2)n1` [Example 12, 5-(1-(6-methylpyridin-2-yl)-1H-pyrazol-5-yl)pyrazolo[1,5-a]pyridine-3-carboxamide], for which the IC50 was 9.39 ± 2.15 nM on TGFβR1, greater than 10 µM at CYP1A2 (setting [1]), greater than 10 µM at CYP3A4 and greater than 10 µM against CYP2D6.
